Structures can show the parent of a compound that is named as a salt.
Legend:
[1] = system: NF-kB-dependent TNF-α secretion; assay: TNF-α secretion assay (counterscreen); format: cell-based; conditions: Homo sapiens; THP-1 cells, Pam3CSK4-stimulated, 3 hours, HTRF
Protocol: Monocytic THP-1 cells were maintained according to providers' instructions in RPMI media as described above. Undifferentiated cells were plated at 50,000 cells per well in a 384-well flat-bottom cell culture plates (Greiner, #781986), and allowed to rest overnight. Experimental compounds were prepared and added as described above. TNF-α secretion was triggered by the addition of either 1 μg/mL LPS (Sigma, #L4391) or 100 ng/mL Pam3CSK4 (Invivogen, #tlrl-pms) depending on the experiment, and cells were incubated for 3 hours. 10 μL supernatant was removed, and TNF-α levels were monitored using an HTRF assay (CisBio, #62TNFPEC) according to manufacturers' instructions. Viability was monitored as described above.
IC50 values were calculated from the plot of percentage of inhibition versus the inhibitor concentration by a logistics fit according to: y=A2+(A1−A2)/(1+(x/IC50)^p) where y is the %-inhibition at the inhibitor concentration, x. A1 is the lowest inhibition value, i.e. 0%, and A2 the maximum inhibition value, i.e. 100%. The exponent, p, is the Hill coefficient. The curve fitting was conducted with an internally developed software suite. […]

NLRP3 inflammasome = assay: IL-1β secretion assay; format: cell-based; conditions: PMA-differentiated THP-1 cells, 15 μM nigericin, HTRF
Summary of the method: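 PMA-differentiated THP-1 cells stimulated with nigericin to trigger NLRP3-dependent IL-1β secretion, measured by HTRF after 3 h. Viability/pyroptosis monitored with PrestoBlue. IC50 from logistic fit of % inhibition vs concentration with Hill coefficient.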

Row | SMILES | IC50 [1] | IC50 (NLRP3 inflammasome; Homo sapiens, THP-1, 3 h) | IC50 (NLRP3 inflammasome; 3 hours)
1 | CC(C)(O)c1nn(CC(=O)N[C@@H]2CCC[C@@H](O)C2)c(=O)c2cc3sc(Cl)cc3n12 [Ex 64, 2-(2-Chloro-5-(2-hydroxypropan-2-yl)-8-oxothieno[2′,3′:4,5]pyrrolo[1,2-d][1,2,4]triazin-7(8H)-yl)-N-((1R,3R)-3-hydroxycyclohexyl)acetamide] | > 100000 nM | 3.4 nM | 
2 | CC(C)c1nn(CC(=O)N[C@@H]2CCCN(C[C@H](C)O)C2)c(=O)c2cc3sc(Cl)cc3n12 [Ex 129, 2-(2-Chloro-5-isopropyl-8-oxothieno[2′,3′:4,5]pyrrolo[1,2-d][1,2,4]triazin-7(8H)-yl)-N-((R)-1-((S)-2-hydroxypropyl)piperidin-3-yl)acetamide] | > 100000 nM | 3.1 nM | 
3 | CC(C)c1nn(CC(=O)N[C@@H]2CCCN(C)C2)c(=O)c2cc3sc(F)cc3n12 [Ex 32, (R)-2-(2-Fluoro-5-isopropyl-8-oxothieno[2′,3′:4,5]pyrrolo[1,2-d][1,2,4]triazin-7(8H)-yl)-N-(1-methylpiperidin-3-yl)acetamide] | > 100000 nM | 7.6 nM | 
4 | CC(C)c1nn(CC(=O)N[C@@H]2CCCN(CCF)C2)c(=O)c2cc3sc(Cl)cc3n12 [Ex 28, (R)-2-(2-Chloro-5-isopropyl-8-oxothieno[2′,3′:4,5]pyrrolo[1,2-d][1,2,4]triazin-7(8H)-yl)-N-(1-(2-fluoroethyl)piperidin-3-yl)acetamide] | > 100000 nM | 13.3 nM | 
5 | CC(C)c1nn(CC(=O)N[C@@H]2CCC[C@@H](O)C2)c(=O)c2cc3sc(Cl)cc3n12 [Ex 21, 2-(2-Chloro-5-isopropyl-8-oxothieno[2′,3′:4,5]pyrrolo[1,2-d][1,2,4]triazin-7(8H)-yl)-N-((1R,3R)-3-hydroxycyclohexyl)acetamide] | > 100000 nM | 32.5 nM | 
6 | CC(C)c1nn(CC(=O)N[C@@H]2CCOC2)c(=O)c2cc3sc(Cl)cc3n12 [Ex 100, (R)-2-(2-Chloro-5-isopropyl-8-oxothieno[2′,3′:4,5]pyrrolo[1,2-d][1,2,4]triazin-7(8H)-yl)-N-(tetrahydrofuran-3-yl)acetamide] | > 100000 nM | 182 nM | 
7 | CC(C)c1nn(CC(=O)N[C@@H]2CCCOC2)c(=O)c2cc3sc(Cl)cc3n12 [Ex 59, (R)-2-(2-Chloro-5-isopropyl-8-oxothieno[2′,3′:4,5]pyrrolo[1,2-d][1,2,4]triazin-7(8H)-yl)-N-(tetrahydro-2H-pyran-3-yl)acetamide] | > 100000 nM | 201 nM | 
8 | CC(C)c1nn(CC(=O)N[C@@H]2CCC(=O)N(C)C2)c(=O)c2cc3scnc3n12 [Ex 49, (R)-2-(5-Isopropyl-8-oxothiazolo[5′,4′:4,5]pyrrolo[1,2-d][1,2,4]triazin-7(8H)-yl)-N-(1-methyl-6-oxopiperidin-3-yl)acetamide] | > 100000 nM |  | 26.4 nM
9 | CC1(C)CC(NC(=O)Cn2nc(C(C)(C)O)n3c(cc4sc(Cl)cc43)c2=O)C1 [Ex 25, 2-(2-Chloro-5-(2-hydroxypropan-2-yl)-8-oxothieno[2′,3′:4,5]pyrrolo[1,2-d][1,2,4]triazin-7(8H)-yl)-N-(3,3-dimethylcyclobutyl)acetamide] | > 100000 nM | 78.5 nM | 
10 | O=C(Cn1nc(C2CC2)n2c(cc3scnc32)c1=O)Nc1cccnc1 [Ex 4, 2-(5-Cyclopropyl-8-oxothiazolo[5′,4′:4,5]pyrrolo[1,2-d][1,2,4]triazin-7(8H)-yl)-N-(pyridin-3-yl)acetamide] | > 100000 nM | 220 nM | 
11 | Cc1cc2c(cc3c(=O)n(CC(=O)N[C@@H]4CCCNC4)nc(C(C)C)n32)s1 [Ex 38, (R)-2-(5-Isopropyl-2-methyl-8-oxothieno[2′,3′:4,5]pyrrolo[1,2-d][1,2,4]triazin-7(8H)-yl)-N-(piperidin-3-yl)acetamide] | > 100000 nM | 88 nM | 
12 | CC(C)c1nn(CC(=O)NC2CC2)c(=O)c2cc3scnc3n12 [Ex 51, N-Cyclopropyl-2-(5-isopropyl-8-oxothiazolo[5′,4′:4,5]pyrrolo[1,2-d][1,2,4]triazin-7(8H)-yl)acetamide] | > 100000 nM | 138 nM | 
13 | Cc1nc2c(cc3c(=O)n(CC(=O)N[C@@H]4CCCNC4)nc(C(C)C)n32)s1 [Ex 50, (R)-2-(5-Isopropyl-2-methyl-8-oxothiazolo[5′,4′:4,5]pyrrolo[1,2-d][1,2,4]triazin-7(8H)-yl)-N-(piperidin-3-yl)acetamide] | > 100000 nM | 108 nM | 
14 | CC(O)c1nn(CC(=O)N[C@@H]2CCCNC2)c(=O)c2cc3sc(Cl)cc3n12 (stereo partly drawn) [Ex 43, 2-(2-Chloro-5-(1-hydroxyethyl)-8-oxothieno[2′,3′:4,5]pyrrolo[1,2-d][1,2,4]triazin-7(8H)-yl)-N-((R)-piperidin-3-yl)acetamide hydrochloride] | > 100000 nM | 2050 nM | 
15 | CC(C)(O)c1nn(CC(=O)NC2CC3(COC3)C2)c(=O)c2cc3sc(Cl)cc3n12 [Ex 26, 2-(2-Chloro-5-(2-hydroxypropan-2-yl)-8-oxothieno[2′,3′:4,5]pyrrolo[1,2-d][1,2,4]triazin-7(8H)-yl)-N-(2-oxaspiro[3.3]heptan-6-yl)acetamide] | > 100000 nM | 46.4 nM | 
16 | CC(C)c1nn(CC(=O)N[C@@H]2CCCNC2)c(=O)c2cc3scnc3n12 [Ex 88, (R)-2-(5-Isopropyl-8-oxothiazolo[5′,4′:4,5]pyrrolo[1,2-d][1,2,4]triazin-7(8H)-yl)-N-(piperidin-3-yl)acetamide] | > 100000 nM | 27.5 nM | 
17 | CC(C)c1nn(CC(=O)N[C@@H]2CCCN(CCF)C2)c(=O)c2cc3scnc3n12 [Ex 89, (R)-N-(1-(2-Fluoroethyl)piperidin-3-yl)-2-(5-isopropyl-8-oxothiazolo[5′,4′:4,5]pyrrolo[1,2-d][1,2,4]triazin-7(8H)-yl)acetamide] | > 100000 nM | 24.8 nM | 
18 | CC(C)c1nn(CC(=O)N[C@@H]2CCC[C@@](C)(O)C2)c(=O)c2cc3sc(Cl)cc3n12 [Ex 27, 2-(2-Chloro-5-isopropyl-8-oxothieno[2′,3′:4,5]pyrrolo[1,2-d][1,2,4]triazin-7(8H)-yl)-N-((1R,3R)-3-hydroxy-3-methylcyclohexyl)acetamide] | > 100000 nM | 18 nM | 
19 | CC(C)c1nn(CC(=O)Nc2ccncn2)c(=O)c2cc3sc(Cl)cc3n12 [Ex 1, 2-(2-Chloro-5-isopropyl-8-oxothieno[2′,3′:4,5]pyrrolo[1,2-d][1,2,4]triazin-7(8H)-yl)-N-(pyrimidin-4-yl)acetamide] | > 100000 nM | 20.2 nM | 
20 | CC(C)(O)c1nn(CC(=O)Nc2cccnc2)c(=O)c2cc3sc(Cl)cc3n12 [Ex 8, 2-(2-Chloro-5-(2-hydroxypropan-2-yl)-8-oxothieno[2′,3′:4,5]pyrrolo[1,2-d][1,2,4]triazin-7(8H)-yl)-N-(pyridin-3-yl)acetamide] | > 100000 nM | 87.4 nM | 
21 | CC(C)c1nn(CC(=O)NCCO)c(=O)c2cc3sc(Cl)cc3n12 [Ex 68, 2-(2-Chloro-5-isopropyl-8-oxothieno[2′,3′:4,5]pyrrolo[1,2-d][1,2,4]triazin-7(8H)-yl)-N-(2-hydroxyethyl)acetamide] | > 100000 nM | 45.2 nM | 
22 | CC(C)c1nn(CC(=O)N[C@@H]2CCC(=O)NC2)c(=O)c2cc3scnc3n12 [Ex 46, (R)-2-(5-Isopropyl-8-oxothiazolo[5′,4′:4,5]pyrrolo[1,2-d][1,2,4]triazin-7(8H)-yl)-N-(6-oxopiperidin-3-yl)acetamide] | > 100000 nM | 50.8 nM | 
23 | CC(C)c1nn(CC(=O)N[C@H]2CC[C@@H](C(=O)O)CC2)c(=O)c2cc3sc(Cl)cc3n12 [Ex 54, (1s,4s)-4-(2-(2-Chloro-5-isopropyl-8-oxothieno[2′,3′:4,5]pyrrolo[1,2-d][1,2,4]triazin-7(8H)-yl)acetamido)cyclohexane-1-carboxylic acid] | > 100000 nM | 562 nM | 
24 | CC(C)c1nn(CC(=O)N[C@@H]2CCCN(CC(C)(C)O)C2)c(=O)c2cc3sc(Cl)cc3n12 [Ex 130, (R)-2-(2-Chloro-5-isopropyl-8-oxothieno[2′,3′:4,5]pyrrolo[1,2-d][1,2,4]triazin-7(8H)-yl)-N-(1-(2-hydroxy-2-methylpropyl)piperidin-3-yl)acetamide] | > 100000 nM | 20.4 nM | 
25 | CC(C)(O)c1nn(CC(=O)N[C@@H]2CCCN(CCF)C2)c(=O)c2cc3sc(Cl)cc3n12 [Ex 30, (R)-2-(2-Chloro-5-(2-hydroxypropan-2-yl)-8-oxothieno[2′,3′:4,5]pyrrolo[1,2-d][1,2,4]triazin-7(8H)-yl)-N-(1-(2-fluoroethyl)piperidin-3-yl)acetamide] | > 100000 nM | 52.5 nM | 
26 | CC(C)c1nn(CC(=O)NC2CC3(COC3)C2)c(=O)c2cc3sc(Cl)cc3n12 [Ex 24, 2-(2-Chloro-5-isopropyl-8-oxothieno[2′,3′:4,5]pyrrolo[1,2-d][1,2,4]triazin-7(8H)-yl)-N-(2-oxaspiro[3.3]heptan-6-yl)acetamide] | > 100000 nM | 39.5 nM | 
27 | Cc1cc2c(cc3c(=O)n(CC(=O)N[C@@H]4CCCN(C)C4)nc(C(C)C)n32)s1 [Ex 40, (R)-2-(5-Isopropyl-2-methyl-8-oxothieno[2′,3′:4,5]pyrrolo[1,2-d][1,2,4]triazin-7(8H)-yl)-N-(1-methylpiperidin-3-yl)acetamide] | > 100000 nM | 56.3 nM | 
